# According to PMC11602115 (Journal of Medicinal Chemistry, 2017):
# Like-named read-outs stand apart in the source and are kept apart here.
# Assays:
# [1] = target: rat IP (Rattus norvegicus, UniProt P43253); experiment: HTRF cAMP assay, recombinant rat IP receptor; assay type: cell-based; parameters: expressed in transfected cells; settings: for EC50: HTRF (cAMP) rat IP receptor assay, mean of at least three determinations; for Emax: read-out: rIP % IA
# Protocol: (§1) The new compounds were tested for functional agonist activity in a standard (Cisbio) cAMP assay using recombinant IP or DP1 receptors stably expressed in CHO-K1 cells. Clonal cell lines were derived following standard protocols, but receptor expression levels were kept to a minimum to preclude receptor reserve effects.
# (§2) For development of cAMP accumulation assays, recombinant IP or DP1 receptors were stably expressed in CHO-K1 cells and clonal cell lines derived following standard protocols. Receptor expression levels were minimized to preclude receptor reserve effects. HTRF cAMP assays were performed according to the manufacturer’s instructions (Cisbio, cAMP Dynamic 2 assay kit; no. 62AM4PEJ). IP receptor-expressing cells were harvested, resuspended in assay buffer (PBS containing 1 mM IBMX and 0.2% BSA) at a density of 200 000 cells per mL, and dispensed into 384-well assay plates (PerkinElmer Proxiplate no. 6008280) at 5 μL per well. Test compounds were solubilized and serially diluted in DMSO using 5-fold dilutions to generate a 10-point dose–response curve with a top concentration of 10 μM. The samples were then further diluted in PBS to achieve a 2× stock. Diluted compounds were then transferred to a triplicate set of assay plates (5 μL per well). After a 1 h incubation at room temperature, 5 μL of cAMP-D2 reagent diluted in lysis buffer was added to each well followed by 5 μL of cryptate reagent. Plates were then incubated at room temperature for 1 h prior to reading. Time-resolved fluorescence measurements were collected on PerkinElmer Envision or BMG Pherastar microplate readers.
# [2] = Stability in rat microsome preparations; assay type: in vitro ADME; settings: incubation at 37 °C, rat microsomes; read-out: rat MS, T1/2
# Excerpt: (§3) Table 1 Screening Data for Selected Analogues ^a | column: human and rat MS, T1/2 (min) ^g
# [3] = target: T1, IP (Homo sapiens, UniProt P43119); experiment: HTRF cAMP assay, recombinant human IP receptor stably expressed in CHO-K1 cells; assay type: cell-based; parameters: expressed in transfected cells
# Protocol: as §1, §2
# [4] = Rat PK (iv and oral); assay type: in vivo; settings: for AUC(0-inf) / bioavailability: Sprague-Dawley, plasma; for AUC(0-inf): after oral administration 10 mg/kg (5m 10.5); for bioavailability: po, 10 mg/kg; for Cmax / Tmax: po 10 mg/kg (5m 10.5); for T1/2: terminal half-life after iv 2 mg/kg (5m 2.1); for Clobs: total clearance, iv 2 mg/kg (5m 2.1)
# [5] = tested on: human platelet; experiment: Inhibition of ADP-induced human platelet aggregation; assay type: cell-based; settings: aggregation induced by 2.5 μM ADP, mean of at least two determinations
# Protocol: Such aggregated and activated platelets produce vasoactive substances such as thromboxane and serotonin that may cause harmful vasoconstriction and vascular remodeling.[13] […] This secondary assay was carried out as previously described,[14] with aggregation induced by 2.5 μM ADP in the presence or absence of IP receptor agonists.
# [6] = Stability in human microsome preparations; assay type: in vitro ADME; settings: incubation at 37 °C, human microsomes; read-out: human MS, T1/2
# Excerpt: as §3
# [7] = target: T2, human DP1 receptor (Homo sapiens, UniProt Q13258); experiment: HTRF cAMP assay, recombinant human DP1 receptor in CHO-K1 cells; assay type: cell-based; settings: for Emax: CHO-K1, intrinsic activity relative to 1 μM PGD2, read-out: hDP1 % IA
# T2 construct: expressed in transfected cells
# T2 sequence (Q13258 1-359): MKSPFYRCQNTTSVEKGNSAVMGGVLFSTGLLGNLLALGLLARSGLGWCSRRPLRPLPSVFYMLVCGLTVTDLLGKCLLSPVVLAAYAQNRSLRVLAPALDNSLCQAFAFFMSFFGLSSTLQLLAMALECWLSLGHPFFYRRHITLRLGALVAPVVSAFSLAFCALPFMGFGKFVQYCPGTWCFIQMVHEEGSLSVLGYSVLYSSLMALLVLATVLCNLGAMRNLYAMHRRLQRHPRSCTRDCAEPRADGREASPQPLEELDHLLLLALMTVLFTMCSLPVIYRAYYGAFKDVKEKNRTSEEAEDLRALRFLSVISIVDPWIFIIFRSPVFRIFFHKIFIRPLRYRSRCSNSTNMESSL
# Protocol: as §1, §2
# [8] = target: EP2 (Homo sapiens, UniProt P43116); experiment: cAMP HTRF agonist assay, EP2; assay type: cell-based; settings: cAMP HTRF agonist assay
# Excerpt: (§4) Table Sup2: Data with some comparator compounds in functional assays. […]
# [9] = target: EP4 (Homo sapiens, UniProt P35408); experiment: cAMP HTRF agonist assay, EP4; assay type: cell-based; settings: cAMP HTRF agonist assay
# Excerpt: (§5) Table Sup2: Data with some comparator compounds in functional assays.
# (§6) Compound DP1 EP1 EP2 EP3v6 EP4
# (§7) EC50, µµµµM (% I.A) EC50, µµµµM (% I.A) EC50, µµµµM (% I.A) EC50, µµµµM (% I.A) EC50, µµµµM (% I.A)
# (§8) n = 3 n = 2 n = 8 n = 6 n = 6 […]
# [10] = target: T3, EP1 (Homo sapiens, UniProt P34995); experiment: cAMP HTRF agonist assay, EP1; assay type: cell-based
# T3 sequence (P34995 1-402): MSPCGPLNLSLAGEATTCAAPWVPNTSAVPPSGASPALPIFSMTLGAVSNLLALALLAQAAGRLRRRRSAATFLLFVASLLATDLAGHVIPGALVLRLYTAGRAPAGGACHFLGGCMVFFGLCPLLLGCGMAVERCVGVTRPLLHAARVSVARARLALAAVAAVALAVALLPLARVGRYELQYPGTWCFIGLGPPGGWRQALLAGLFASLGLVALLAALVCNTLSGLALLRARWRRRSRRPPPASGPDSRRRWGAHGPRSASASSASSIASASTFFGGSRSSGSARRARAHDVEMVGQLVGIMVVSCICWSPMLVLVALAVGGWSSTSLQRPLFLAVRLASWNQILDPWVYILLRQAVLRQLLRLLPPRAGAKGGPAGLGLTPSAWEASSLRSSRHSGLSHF
# Excerpt: as §5, §6, §7, §8
# [11] = target: T4, EP3v6 (Homo sapiens, UniProt P43115); experiment: Melanophore dispersion assay, EP3v6; assay type: cell-based; parameters: expressed in transfected cells; host or cells: melanophores (transient, electroporation); settings: melanophore dispersion assay (Gi)
# T4 sequence (P43115 1-374 isoform P43115-4): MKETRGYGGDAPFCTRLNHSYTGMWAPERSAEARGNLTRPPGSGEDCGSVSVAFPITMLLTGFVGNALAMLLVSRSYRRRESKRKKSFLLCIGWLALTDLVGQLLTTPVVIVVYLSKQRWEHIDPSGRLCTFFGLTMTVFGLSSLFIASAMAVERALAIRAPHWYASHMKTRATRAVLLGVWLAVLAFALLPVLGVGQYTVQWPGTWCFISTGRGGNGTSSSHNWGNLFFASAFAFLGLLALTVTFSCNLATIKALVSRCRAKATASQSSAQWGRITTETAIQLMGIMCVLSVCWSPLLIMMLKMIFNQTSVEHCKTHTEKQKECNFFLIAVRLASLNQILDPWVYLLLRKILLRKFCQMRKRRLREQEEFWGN
# Protocol: For the EP3v6 receptor functional assay, melanophores were transfected by electroporation using 20 μg of recombinant human EP3v6 receptor plasmid DNA per 400 μL of cell suspension. Transfected cells were immediately resuspended in fresh growth medium and plated in 384-well clear, polystyrene microplates. Plated cells were incubated at 27 °C for 48 h after transfection in order to achieve optimal receptor expression. To perform the assay, growth medium was removed from the assay plates and replaced with assay buffer (40 μL/well, 0.7× PBS, pH 7.3, supplemented with 20 nM melatonin to induce pigment aggregation). Following a 90 min incubation at room temperature, a 650 nm absorbance reading was collected and test compounds (10 μL per well) were transferred to the assay plates. Plates were incubated for 90 min at room temperature to allow compound-induced pigment redistribution to take place, and final absorbance reading was then collected. Test compounds were solubilized and serially diluted in DMSO, using 5-fold dilutions, to generate a 10-point dose–response curve with a top concentration of 10 μM (final assay concentration). Samples were then further diluted in assay buffer to achieve a 5× stock prior to addition to the assay plates. A SpectraMax absorbance plate reader (Molecular Devices, Inc.) was used for data collection.
# as §4
# [12] = target: T1, IP; experiment: Recombinant human IP receptor cAMP assay after elimination of receptor reserve (transient CHO); assay type: cell-based; parameters: expressed in transfected cells; settings: following elimination of receptor reserve
# Excerpt: Additional In Vitro Assays
# To determine the potency and efficacy of compounds in cAMP assays in the absence of receptor reserve effects, the cDNA sequence of the human IP receptor was subqcloned into an expression plasmid containing a ubiquitin promoter in place of the more commonly used CMV promoter. The ubiquitin […]
# level of receptor expression after transfection into a suitable cell line. This plasmid was transiently transfected into CHO cells using lipofectamine, following standard protocols. The quantity of transfected plasmid DNA was titrated down from 16 µg to 1 ng per transfection using empty vector as carrier DNA.
# [13] = tested on: primary human pulmonary arterial smooth muscle cells; experiment: HTRF cAMP assay in primary human pulmonary arterial smooth muscle cells; assay type: cell-based
# Protocol: Additional In Vitro Assays […]
# Compounds were also evaluated in HTRF cAMP assays using primary human pulmonary arterial smooth muscle cells (Cell Applications, Inc., #352Kq05a, or ThermoFisher/Gibco, #C0095C) using the same basic assay protocol outlined in the Experimental section. Cells were cultured as recommended by the suppliers, used at low passage and seeded into 384qwell assay plates at a density of 700q900 cell per well
# [14] = HTRF (cAMP) human IP receptor assay; mean of at least three determinations
# [15] = HTRF (cAMP) human DP1 receptor assay, mean of at least three determinations, read-out: EC50 hDP1
# [16] = cAMP HTRF agonist assay (Gs), Table Sup2
# [17] = cAMP HTRF agonist assay (Gs), Table Sup2, read-out: DP1 EC50
# T1 sequence (P43119 whole entry): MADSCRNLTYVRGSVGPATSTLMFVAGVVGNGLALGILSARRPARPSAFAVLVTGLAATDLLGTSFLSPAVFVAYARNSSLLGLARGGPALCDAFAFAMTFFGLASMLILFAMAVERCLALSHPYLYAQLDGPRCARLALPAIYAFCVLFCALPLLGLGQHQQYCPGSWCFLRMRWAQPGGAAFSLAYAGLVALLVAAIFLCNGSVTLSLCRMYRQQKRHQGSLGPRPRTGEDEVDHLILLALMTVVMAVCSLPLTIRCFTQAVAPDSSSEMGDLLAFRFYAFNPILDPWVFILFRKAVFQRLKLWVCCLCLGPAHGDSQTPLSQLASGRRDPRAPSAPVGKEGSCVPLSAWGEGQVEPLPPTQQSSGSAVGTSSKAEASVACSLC
# Sequence of EP2 (P43116 whole entry): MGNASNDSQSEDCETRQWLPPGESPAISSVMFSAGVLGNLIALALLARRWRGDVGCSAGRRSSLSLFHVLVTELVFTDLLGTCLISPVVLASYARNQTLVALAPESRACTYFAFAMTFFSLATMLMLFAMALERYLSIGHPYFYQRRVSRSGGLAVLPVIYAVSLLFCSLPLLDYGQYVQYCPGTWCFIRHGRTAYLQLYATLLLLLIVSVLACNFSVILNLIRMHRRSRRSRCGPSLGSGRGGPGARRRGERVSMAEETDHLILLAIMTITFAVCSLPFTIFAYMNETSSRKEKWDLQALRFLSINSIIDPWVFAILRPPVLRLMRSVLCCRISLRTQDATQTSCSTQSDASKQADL
# Sequence of rat IP (P43253 whole entry): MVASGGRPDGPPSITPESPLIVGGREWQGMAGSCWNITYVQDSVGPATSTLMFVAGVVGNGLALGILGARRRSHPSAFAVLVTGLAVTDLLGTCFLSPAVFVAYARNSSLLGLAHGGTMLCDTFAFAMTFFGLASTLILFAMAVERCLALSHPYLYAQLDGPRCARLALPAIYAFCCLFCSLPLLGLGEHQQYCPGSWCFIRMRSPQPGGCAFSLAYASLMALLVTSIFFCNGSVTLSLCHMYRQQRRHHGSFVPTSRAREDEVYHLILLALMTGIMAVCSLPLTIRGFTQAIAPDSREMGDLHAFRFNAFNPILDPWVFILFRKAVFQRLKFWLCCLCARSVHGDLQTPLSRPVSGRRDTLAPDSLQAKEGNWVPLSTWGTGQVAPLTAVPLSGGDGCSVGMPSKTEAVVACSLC
# Sequence of EP4 (P35408 whole entry): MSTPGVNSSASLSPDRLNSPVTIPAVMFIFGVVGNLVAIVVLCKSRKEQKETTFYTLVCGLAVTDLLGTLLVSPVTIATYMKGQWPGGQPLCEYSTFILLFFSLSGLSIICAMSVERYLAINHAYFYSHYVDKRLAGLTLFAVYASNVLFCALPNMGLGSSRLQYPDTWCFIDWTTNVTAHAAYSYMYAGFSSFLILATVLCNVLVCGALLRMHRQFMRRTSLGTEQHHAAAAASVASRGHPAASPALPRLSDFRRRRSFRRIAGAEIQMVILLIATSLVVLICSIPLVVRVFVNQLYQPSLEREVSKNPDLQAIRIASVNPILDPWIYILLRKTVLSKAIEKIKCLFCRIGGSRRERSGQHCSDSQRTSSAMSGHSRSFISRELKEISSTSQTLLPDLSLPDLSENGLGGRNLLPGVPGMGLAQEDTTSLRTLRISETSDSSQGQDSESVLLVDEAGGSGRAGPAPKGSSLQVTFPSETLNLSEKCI
EC50 [1] [nM],Emax [1] [%],half-life [2] [h],Emax ([3]; CHO-K1; read-out: hIP % IA) [%],"EC50 [3, 14] [nM]",AUC(0-inf) [4] [ng·h/mL],bioavailability [4] [%],Cmax [4] [ng/mL],Tmax [4] [h],T1/2 [4] [h],Clobs [4] [L h^–1 kg^–1],IC50 [5] [nM],half-life [6] [h],Emax [7] [%],"EC50 [7, 15] [nM]",EC50 [8] [nM],EP2 % I.A [8] [%],"EC50 [7, 17] [nM]",Structure (SMILES),EC50 [9] [nM],"DP1 % I.A [7, 16] [%]",further results
400,92,> 1,85,3.4,2600,88,3000,0.5,5,0.8,23,> 1,38,2050,–,–,–,"O=C(O)COC[C@H]1CC[C@H](COC(=O)N(c2ccccc2)c2ccc(Cl)c(F)c2)CC1 [5m, 2-(((1r,4r)-4-(((4-Chloro-3-fluorophenyl)(phenyl)carbamoyloxy)methyl)cyclohexyl)methoxy)acetic Acid]",–,–,–
640,95,> 1,88,10,4500,24,1430,0.833,3.2,0.6,19,> 1,45,5000,–,–,–,"O=C(O)COC[C@H]1CC[C@H](COC(=O)N(c2ccccc2)c2ccc(F)c(F)c2)CC1 [5o, 2-(((1r,4r)-4-(((3,4-Difluorophenyl)(phenyl)carbamoyloxy)methyl)cyclohexyl)methoxy)acetic Acid]",–,–,–
–,–,–,–,–,–,–,–,–,–,–,–,–,–,–,790,73,0.8,O=C(O)CCCCCCC1C(=O)NC(=O)N1CCC(O)C1CCCCC1 (centres unmarked) [BW245C],> 10000,98,–
–,–,–,–,–,–,–,–,–,–,–,–,–,–,–,> 10000,–,1.3,CCCCC[C@H](O)/C=C/[C@H]1C(=O)C[C@H](O)[C@@H]1C/C=C\CCCC(=O)O [PGD2],–,–,EC50 [10]: > 10000 nM
–,–,–,–,–,–,–,–,–,–,–,–,–,–,–,–,84,520,CCCCC[C@H](O)/C=C/[C@H]1[C@H](O)CC(=O)[C@@H]1C/C=C\CCCC(=O)O [PGE2],–,–,EC50 [10]: 51 nM; EP1 % I.A [10]: 92%; EP3v6 % I.A [11]: 100%

Structure (SMILES),EC50 [1] [nM],Emax [1] [%],half-life [2] [h],Emax ([3]; CHO-K1; read-out: hIP % IA) [%],"EC50 [3, 14] [nM]",AUC(0-inf) [4] [ng·h/mL],bioavailability [4] [%],Cmax [4] [ng/mL],Tmax [4] [h],T1/2 [4] [h],Clobs [4] [L h^–1 kg^–1],IC50 [5] [nM],half-life [6] [h],Emax [7] [%],"EC50 [7, 15] [nM]",EC50 [8] [nM],EP2 % I.A [8] [%],"EC50 [7, 17] [nM]",EC50 [9] [nM],"DP1 % I.A [7, 16] [%]",further results
"CC(C)N(CCCCOCC(=O)O)c1cnc(-c2ccccc2)c(-c2ccccc2)n1 [compound 2, MRE269]",–,–,–,–,22,–,–,–,–,–,–,288,–,80,154,> 10000,–,–,> 10000,80,"Efficacy (% vs. Iloprost) [95% CI], recombinant IP receptor cAMP [12]: 48 [43, 53] %; EC50 ([12]; n = 9, read-out: EC50 [95% CI], recombinant IP receptor cAMP): 151 nM; Emax ([3]; CHO-K1, read-out: hIP % IA): 60%; Efficacy (% vs. Iloprost) [95% CI], primary human PASMC cAMP [13]: 41 [33, 49] %; EC50 ([13]; Homo sapiens, PASMC, n = 8, read-out: EC50 [95% CI], primary human PASMC cAMP): 184 nM; EC50 [11]: > 10000 nM"
